# Test results reported in publication PMC11808659 (RSC Advances, 2025).
# System: K562 human leukemia cell line
# Test: MTT anti-proliferative activity on K562 cell line
# Assay type: cell-based
# Settings: structure-activity discussion
row,SMILES,anti-tumor activity against K562 cell line (in words)
1,"COc1ccc(-c2cc(-c3ccc(Cl)cc3)nc(N)n2)cc1 [1p, 4-(4-Chlorophenyl)-6-(4-methoxyphenyl)pyrimidin-2-amine]",significantly decreased the inhibitory activity
2,"COc1ccc(-c2cc(-c3ccccc3O)nc(N)n2)cc1 [1d, 2-(2-Amino-6-(4-methoxyphenyl)pyrimidin-4-yl)phenol]",completely lost their anti-tumor activity
3,"Nc1nc(-c2ccc(Cl)cc2)cc(-c2ccccc2O)n1 [1f, 2-(2-Amino-6-(4-chlorophenyl)pyrimidin-4-yl)phenol]",significantly decreased the inhibitory activity
4,"COc1cccc(-c2cc(-c3ccc(Cl)cc3)nc(N)n2)c1 [1k, 4-(4-Chloro-phenyl)-6-(3-methoxy-phenyl)-pyrimidin-2-ylamine]",significantly decreased the inhibitory activity
5,"COc1ccc(-c2cc(-c3ccc(OC)cc3)nc(N)n2)cc1 [1n, 4,6-Bis(4-methoxyphenyl)pyrimidin-2-amine]",completely lost their anti-tumor activity
6,"COc1ccc(-c2cc(-c3cccc(OC)c3)nc(N)n2)cc1 [1i, 4-(4-Methoxy-phenyl)-6-(3-methoxy-phenyl)-pyrimidin-2-ylamine]",completely lost their anti-tumor activity

# System: ABL1 tyrosine kinase
# Test: ABL1 tyrosine kinase inhibition in K562 cells
# Assay type: cell-based, human
# Settings: at a concentration of 30 μM
row,SMILES,inhibition of ABL1 production
1,"Nc1nc(-c2ccc(Br)cc2)cc(-c2ccccc2O)n1 [1e, 2-(2-Amino-6-(4-bromophenyl)pyrimidin-4-yl)phenol]",80%
